Data: patent publication US10828301B2, “2,4-pyrimidinediamine compounds and their uses” (Rigel Pharmaceuticals, Inc, priority 2002, dated 2020)

Legend:
[1] = system: cultured human mast cells (CHMC); assay: CHMC low cell density IgE activation: tryptase and LTC4 assays; assay type: cell-based; conditions: Homo sapiens, Mast cell, Low Density CHMC, anti-IgE activation, tryptase readout; read-out: CHMC anti-IgE Tryptase
Summary of the method: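 Cultured human mast cells at low density (1000-1500 per well) rested 1 h at 37° C, then stimulated with anti-IgE for 30 min at 37° C. Supernatant tryptase measured with fluorogenic substrate (30 min, room temperature); LTC4 quantified by ELISA on diluted supernatant.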

[2] = system: cultured human mast cells (CHMC); assay: CHMC low cell density ionomycin activation: tryptase assay; assay type: cell-based; conditions: Homo sapiens, Mast cell, Low Density CHMC, ionomycin activation, tryptase readout; read-out: CHMC Ionomycin Tryptase

| SMILES | IC50 [1] | IC50 [2] |
| --- | --- | --- |
| CNC(=O)c1cc(Nc2nc(NC)ncc2F)ccc1OC [Compound R940304, 5-Fluoro-N4-(3-methylaminocarbonyl-4-methoxyphenyl)-N2-methyl-2,4-pyrimidinediamine] | > 10 µM | > 10 µM |
| COC(=O)c1ccc(Nc2ncc(F)c(Nc3ccc(C(=O)OC)cc3)n2)cc1 [Compound R945034, N2,N4-Bis(4-methoxycarbonylphenyl)-5-fluoro-2,4-pyrimidinediamine] | 1.85 µM | > 10 µM |
| COC(=O)c1cccc(Nc2ncc(F)c(Nc3cccc(C(=O)OC)c3)n2)c1 [Compound R945035, N2,N4-Bis(3-methoxycarbonylphenyl)-5-fluoro-2,4-pyrimidinediamine] | > 10 µM | > 10 µM |
| O=C(O)c1cccc(Nc2ncc(F)c(Nc3cccc(C(=O)O)c3)n2)c1 [Compound R945036, N2,N4-Bis(3-carboxyphenyl)-5-fluoro-2,4-pyrimidinediamine] | > 10 µM | > 10 µM |
| O=C(O)c1ccc(Nc2ncc(F)c(Nc3ccc(C(=O)O)cc3)n2)cc1 [Compound R945037, N2,N4-Bis(4-carboxyphenyl)-5-fluoro-2,4-pyrimidinediamine] | > 10 µM | > 10 µM |
| Cc1c(O)cccc1Nc1ncc(F)c(Nc2cccc(O)c2C)n1 [Compound R945038, N2,N4-Bis(3-hydroxy-2-methylphenyl)-5-fluoro-2,4-pyrimidinediamine] | > 10 µM | > 10 µM |
| CCNC(=O)Nc1ccc(Nc2ncc(F)c(Nc3ccc(NC(=O)NCC)cc3)n2)cc1 [Compound R945040, N2,N4-Bis[4-(ethylaminocarbonylamino)phenyl]-5-fluoro-2,4-pyrimidinediamine] | > 10 µM | > 10 µM |
| O=C(O)c1cc(Nc2ncc(F)c(Nc3ccc(O)c(C(=O)O)c3)n2)ccc1O [Compound R945041, N2,N4-Bis(3-carboxy-4-hydroxyphenyl)-5-fluoro-2,4-pyrimidinediamine] | > 10 µM | > 10 µM |
| COC(=O)c1cc(Nc2ncc(F)c(Nc3ccc(O)c(C(=O)OC)c3)n2)ccc1O [Compound R945043, N2,N4-Bis(4-hydroxy-3-methoxycarbonylphenyl)-5-fluoro-2,4-pyrimidinediamine] | > 10 µM | > 10 µM |
| CCNC(=O)Nc1cccc(Nc2ncc(F)c(Nc3cccc(NC(=O)NCC)c3)n2)c1 [Compound R945045, N2,N4-Bis[3-(ethylaminocarbonylamino)phenyl]-5-fluoro-2,4-pyrimidinediamine] | > 10 µM | > 10 µM |
| N#Cc1cccc(Nc2ncc(F)c(Nc3cccc(C#N)c3)n2)c1 [Compound R945051, N2,N4-Bis(3-cyanophenyl)-5-fluoro-2,4-pyrimidinediamine] | 0.95 µM | > 10 µM |
| COC(=O)c1ccc(Nc2ncc(F)c(Nc3ccc(C(=O)OC)c(O)c3)n2)cc1O [Compound R945056, N2,N4-Bis[3-hydroxy-4-(methoxycarbonyl)phenyl]-5-fluoro-2,4-pyrimidinediamine] | 10 µM | > 10 µM |
| N#Cc1ccc(Nc2ncc(F)c(Nc3ccc(C#N)cc3)n2)cc1 [Compound R945057, N2,N4-Bis(4-cyanophenyl)-5-fluoro-2,4-pyrimidinediamine] | 10 µM | > 10 µM |
| O=C(O)c1ccc(Nc2ncc(F)c(Nc3ccc(C(=O)O)c(O)c3)n2)cc1O [Compound R945061, N2,N4-Bis(3-hydroxy-4-carboxyphenyl)-5-fluoro-2,4-pyrimidinediamine] | 10 µM | > 10 µM |
| COC(=O)c1ccc(Nc2ncc(F)c(Nc3ccc(C(=O)OC)c(OC)c3)n2)cc1OC [Compound R945065, N2,N4-Bis(3-methoxy-4-methoxycarbonylphenyl)-5-fluoro-2,4-pyrimidinediamine] | 1.43 µM | > 10 µM |
| N#Cc1cccc(Nc2nc(Nc3cccc(O)c3)ncc2F)c1 [Compound R945109, N4-(3-Cyanophenyl)-5-fluoro-N2-(3-hydroxyphenyl)-2,4-pyrimidinediamine] | 1.02 µM | > 10 µM |
| Oc1cccc(Nc2nc(NCCc3c[nH]c4ccccc34)ncc2F)c1 [Compound R945117, 5-Fluoro-N4-(3-hydroxyphenyl)-N2-[2-(indol-3-yl)ethyl]-2,4-pyrimidinediamine] | 4.08 µM | > 10 µM |
| OCCOc1ccc(Nc2ncc(F)c(Nc3ccc4c(c3)OCCO4)n2)cc1 [Compound R945144, N4-(3,4-Ethylenedioxyphenyl)-5-fluoro-N2-[4-(2-hydroxyethyloxy)phenyl]-2,4-pyrimidinediamine] | 0.244 µM | > 10 µM |
| Fc1cnc(NCc2csc3ccccc23)nc1NCc1csc2ccccc12 [Compound R945145, N2,N4-Bis(benzothiophen-3-ylmethyl)-5-fluoro-2,4-pyrimidinediamine] | > 10 µM | > 10 µM |

| SMILES | IC50 [1] | IC50 [2] |
| --- | --- | --- |
| Oc1cccc(Nc2ncc(F)c(NCc3csc4ccccc34)n2)c1 [Compound R945146, N4-(Benzothiophen-3-ylmethyl)-5-fluoro-N2-(3-hydroxyphenyl)-2,4-pyrimidinediamine] | 3.76 µM | > 10 µM |
| Oc1cccc(Nc2ncc(F)c(NCc3cccnc3)n2)c1 [Compound R945147, 5-Fluoro-N2-(3-hydroxyphenyl)-N4-(3-pyridylmethyl)-2,4-pyrimidinediamine] | 3.55 µM | > 10 µM |
| Cc1cc(CNc2nc(Nc3cccc(O)c3)ncc2F)c(C)o1 [Compound R945151, N4-[(2,5-Dimethyl-3-furyl)methyl]-5-fluoro-N2-(3-hydroxyphenyl)-2,4-pyrimidinediamine] | 4.07 µM | > 10 µM |
| Fc1cnc(Nc2ccc(N3CCN(Cc4ccccc4)CC3)cc2)nc1Nc1ccc(N2CCN(Cc3ccccc3)CC2)cc1 [Compound R945152, N2,N4-Bis[4-(N-benzylpiperazino)phenyl]-5-fluoro-2,4-pyrimidinediamine] | 6.94 µM | > 10 µM |
| Fc1cnc(Nc2ccc3c(c2)OCCO3)nc1Nc1ccc(N2CCN(Cc3ccccc3)CC2)cc1 [Compound R945155, N4-[4-(N-Benzylpiperazino)phenyl]-N2-(3,4-ethylenedioxyphenyl)-5-fluoro-2,4-pyrimidinediamine] | 1.88 µM | > 10 µM |
| Cc1cc(CNc2ncc(F)c(Nc3cccc(O)c3)n2)c(C)o1 [Compound R945162, N2-[(2,5-Dimethyl-3-furyl)methyl]-5-fluoro-N4-(3-hydroxyphenyl)-2,4-pyrimidinediamine] | > 10 µM | > 10 µM |
| Fc1cnc(Nc2ccc(N3CCN(Cc4ccccc4)CC3)cc2)nc1Nc1ccc2c(c1)OCCO2 [Compound R945163, N2-[4-(N-Benzylpiperazino)phenyl]-N4-(3,4-ethylenedioxyphenyl)-5-fluoro-2,4-pyrimidinediamine] | 0.922 µM | 4.25 µM |
| Oc1cccc(Nc2nc(NCc3csc4ccccc34)ncc2F)c1 [Compound R945164, N2-(Benzothiophen-3-ylmethyl)-5-fluoro-N4-(3-hydroxyphenyl)-2,4-pyrimidinediamine] | 10 µM | > 10 µM |
| Oc1cccc(Nc2nc(NCc3cccnc3)ncc2F)c1 [Compound R945165, 5-Fluoro-N4-(3-hydroxyphenyl)-N2-(3-pyridylmethyl)-2,4-pyrimidinediamine] | > 10 µM | > 10 µM |
| Oc1cccc(Nc2nc(NCc3ccccn3)ncc2F)c1 [Compound R945166, 5-Fluoro-N4-(3-hydroxyphenyl)-N2-(2-pyridylmethyl)-2,4-pyrimidinediamine] | > 10 µM | > 10 µM |
| Oc1cccc(Nc2nc(NCc3ccc4c(c3)OCCO4)ncc2F)c1 [Compound R945168, N2-(2,3-Dihydro-1,4-benzodioxin-6-ylmethyl)-5-fluoro-N4-(3-hydroxyphenyl)-2,4-pyrimidinediamine] | 10 µM | > 10 µM |
| O=C1CCNC2=COc3ccc(Nc4nc(Nc5cccc(O)c5)ncc4F)cc3N12 [Compound R945237, 5-Fluoro-N2-(3-hydroxyphenyl)-N4-[1-oxo-1,2,3,6-tetrahydropyrimido[2,1-c][1,4]benzoxazin-9-yl]-2,4-pyrimidinediamine] | 0.461 µM | > 10 µM |
| Fc1cnc(Nc2ccc(OCc3ccccc3)c(C(F)(F)F)c2)nc1Nc1ccc(OCc2ccccc2)c(C(F)(F)F)c1 [Compound R950090, N2,N4-Bis(4-benzyloxy-3-trifluoromethylphenyl)-5-fluoro-2,4-pyrimidinediamine] | > 10 µM | > 10 µM |
| N#Cc1cc(Nc2ncc(F)c(Nc3ccc(O)c(C#N)c3)n2)ccc1O [Compound R950092, N2,N4-Bis(3-cyano-4-hydroxyphenyl)-5-fluoro-2,4-pyrimidinediamine] | > 10 µM | > 10 µM |
| Oc1ccc(Nc2ncc(F)c(Nc3ccc(O)c(C(F)(F)F)c3)n2)cc1C(F)(F)F [Compound R950093, N2,N4-Bis(4-hydroxy-3-trifluoromethylphenyl)-5-fluoro-2,4-pyrimidinediamine] | 0.64 µM | 5.55 µM |
| CC(C)(C)OC(=O)Nc1cccc(Nc2ncc(F)c(Nc3cccc(NC(=O)OC(C)(C)C)c3)n2)c1 [Compound R950108, N2,N4-Bis[3-(tert-butoxycarbonylamino)phenyl]-5-fluoro-2,4-pyrimidinediamine] | 2.08 µM | > 10 µM |
| CC(C)(C)OC(=O)Nc1ccc(Nc2ncc(F)c(Nc3ccc(NC(=O)OC(C)(C)C)cc3)n2)cc1 [Compound R950120, N2,N4-Bis[4-(tert-butoxycarbonylamino)phenyl]-5-fluoro-2,4-pyrimidinediamine] | 3 µM | > 10 µM |
| Nc1cc(Nc2ccnc(Nc3ccc(Nc4ccccc4)c(N)c3)n2)ccc1Nc1ccccc1 [Compound R950123, N2,N4-Bis[3-amino-4-(N-phenylamino)-phenyl]-2,4-pyrimidinediamine] | 3.25 µM | 8.45 µM |
